Results reported in ChEMBL document CHEMBL1201862, “PubChem BioAssay data set” (2004).
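1) Cells in 96-well plates. 2) Compound, 48 h, 5 concentrations. 3) Linear interpolation between surrounding doses. 4) Unreached endpoint = highest concentration. Here, GI50 denotes the concentration required for 50% inhibition of growth.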 Activity calls are given as the source filed them. Rule as the data show it: active = GI50 up to about 1.1 µM and inactive = higher.

Legend:
Test in all cases: NCI tumour cell line growth inhibition, 48 h
[1] = test system: NCI-H226
[2] = test system: SW-620
[3] = test system: SF-268
[4] = test system: NCI/ADR-RES
[5] = test system: PC-3
[6] = test system: SF-295
[7] = test system: UACC-257
[8] = test system: SNB-19
[9] = test system: TK-10
[10] = test system: OVCAR-8
[11] = test system: MCF7
[12] = test system: K562
[13] = test system: HCT-116
[14] = test system: MDA-MB-435
[15] = test system: HOP-62
[16] = test system: MOLT-4
[17] = test system: SR
[18] = test system: A549
[19] = test system: COLO 205

| SMILES | GI50 [1] | GI50 [2] | GI50 [3] | GI50 [4] | GI50 [5] | GI50 [6] | GI50 [7] | GI50 [8] | GI50 [9] | GI50 [10] | GI50 [11] | GI50 [12] | GI50 [13] | GI50 [14] | GI50 [15] | GI50 [16] | GI50 [17] | GI50 [18] | GI50 [19] |
| --- | --- | --- | --- | --- | --- | --- | --- | --- | --- | --- | --- | --- | --- | --- | --- | --- | --- | --- | --- |
| COC(=O)C1Cc2c([nH]c3ccccc23)C(c2cccc(O)c2)N1 (stereo not drawn) | 40.7 µM (inactive) | 24.3 µM (inactive) | 40.8 µM (inactive) | 22.9 µM (inactive) | 27.3 µM (inactive) | 45.7 µM (inactive) | 90.8 µM (inactive) | 42.5 µM (inactive) | > 100 µM (inactive) | 32.1 µM (inactive) | 27.3 µM (inactive) | 33.1 µM (inactive) | 35.7 µM (inactive) | 18.2 µM (inactive) | 75.9 µM (inactive) | 31.6 µM (inactive) | 28.2 µM (inactive) | 41 µM (inactive) | 30.5 µM (inactive) |
| COc1cc2c(cc1C)NC(=O)/C2=C/c1c(Cl)[nH]c2cc(C)c(OC)cc12 | 17.2 µM (inactive) | 3.64 µM (inactive) | 2.79 µM (inactive) | 3.19 µM (inactive) | 4.23 µM (inactive) | 1.21 µM (inactive) | 9.64 µM (inactive) | 4.63 µM (inactive) | 7.1 µM (inactive) | 5.98 µM (inactive) | 1.4 µM (inactive) | 4.36 µM (inactive) | 3.85 µM (inactive) | 2.69 µM (inactive) | 10.1 µM (inactive) | 1.45 µM (inactive) | 0.428 µM (active) | 4.55 µM (inactive) | 2.33 µM (inactive) |
| COc1ccc2nc3n(c2c1)C(c1c(Cl)cccc1Cl)SC3 (stereo not drawn) | > 100 µM (inactive) | > 100 µM (inactive) | – | > 100 µM (inactive) | > 100 µM (inactive) | > 100 µM (inactive) | > 100 µM (inactive) | > 100 µM (inactive) | > 100 µM (inactive) | > 100 µM (inactive) | > 100 µM (inactive) | > 100 µM (inactive) | > 100 µM (inactive) | > 100 µM (inactive) | 59.7 µM (inactive) | > 100 µM (inactive) | > 100 µM (inactive) | > 100 µM (inactive) | > 100 µM (inactive) |
| O=P(OCc1ccccc1)(OCc1ccccc1)C(O)/C=C/c1ccccc1 (stereo not drawn) | 34.8 µM (inactive) | 26.1 µM (inactive) | 16.9 µM (inactive) | 26.5 µM (inactive) | 28 µM (inactive) | 20.3 µM (inactive) | 17 µM (inactive) | 23 µM (inactive) | – | 24 µM (inactive) | 27.6 µM (inactive) | 34.2 µM (inactive) | 17.7 µM (inactive) | 17.3 µM (inactive) | 21.8 µM (inactive) | 21.6 µM (inactive) | 19.9 µM (inactive) | 32.9 µM (inactive) | 21.3 µM (inactive) |
| C[C@@H]1Nc2cc(NC(=O)OCCF)nc(N)c2N=C1c1ccccc1 | 42.2 µM (inactive) | < 0.0001 µM (active) | < 0.0001 µM (active) | < 0.0001 µM (active) | < 0.0001 µM (active) | < 0.0001 µM (active) | < 0.01 µM (active) | 0.0409 µM (active) | – | < 0.0001 µM (active) | 0.0208 µM (active) | < 0.0001 µM (active) | < 0.0001 µM (active) | < 0.0001 µM (active) | < 0.0001 µM (active) | < 0.0001 µM (active) | < 0.0001 µM (active) | < 0.0001 µM (active) | < 0.0001 µM (active) |
| Cc1ccc(Cc2n[nH]c(=O)n2N2C(=O)c3ccccc3C2=O)cc1 | > 100 µM (inactive) | > 100 µM (inactive) | – | > 100 µM (inactive) | > 100 µM (inactive) | > 100 µM (inactive) | > 100 µM (inactive) | > 100 µM (inactive) | > 100 µM (inactive) | > 100 µM (inactive) | > 100 µM (inactive) | > 100 µM (inactive) | > 100 µM (inactive) | > 100 µM (inactive) | > 100 µM (inactive) | > 100 µM (inactive) | > 100 µM (inactive) | > 100 µM (inactive) | > 100 µM (inactive) |
| CCOC(=O)CCC(NC(=O)c1ccc(Nc2nc3ccccc3nc2C(=O)OCC)s1)C(=O)OCC (stereo not drawn) | 21.1 µM (inactive) | > 100 µM (inactive) | 98.4 µM (inactive) | 19.9 µM (inactive) | > 100 µM (inactive) | – | > 100 µM (inactive) | 95.1 µM (inactive) | > 100 µM (inactive) | 19.5 µM (inactive) | > 100 µM (inactive) | > 100 µM (inactive) | > 100 µM (inactive) | > 100 µM (inactive) | – | > 100 µM (inactive) | > 100 µM (inactive) | 88.1 µM (inactive) | > 100 µM (inactive) |
| Cc1ccc(Cc2nnc(S)[nH]2)cc1 | > 100 µM (inactive) | > 100 µM (inactive) | – | 77.6 µM (inactive) | > 100 µM (inactive) | 52.2 µM (inactive) | > 100 µM (inactive) | > 100 µM (inactive) | > 100 µM (inactive) | 79.4 µM (inactive) | > 100 µM (inactive) | 94.8 µM (inactive) | 54.8 µM (inactive) | > 100 µM (inactive) | 61.9 µM (inactive) | > 100 µM (inactive) | > 100 µM (inactive) | 84.7 µM (inactive) | > 100 µM (inactive) |
| CCCCC(=O)c1ccc2ccccc2c1O | > 100 µM (inactive) | > 100 µM (inactive) | > 100 µM (inactive) | > 100 µM (inactive) | > 100 µM (inactive) | > 100 µM (inactive) | > 100 µM (inactive) | > 100 µM (inactive) | > 100 µM (inactive) | > 100 µM (inactive) | 52.8 µM (inactive) | 28.8 µM (inactive) | > 100 µM (inactive) | > 100 µM (inactive) | > 100 µM (inactive) | 84.1 µM (inactive) | 62.5 µM (inactive) | – | 88.9 µM (inactive) |
| CCOC(=O)C1(Cc2ccccc2)Cc2ccccc2C1=O (stereo not drawn) | 19.7 µM (inactive) | 33.7 µM (inactive) | 29.2 µM (inactive) | 21.9 µM (inactive) | 17.6 µM (inactive) | 37.1 µM (inactive) | > 10 µM (inactive) | – | 36.8 µM (inactive) | 28.8 µM (inactive) | 33.8 µM (inactive) | 24 µM (inactive) | 27.4 µM (inactive) | 20 µM (inactive) | 35.2 µM (inactive) | 19.6 µM (inactive) | 22 µM (inactive) | 23.7 µM (inactive) | 19.6 µM (inactive) |
| CC(C)(Cc1ccccc1)N1C(=O)N1C(C)(C)Cc1ccccc1 | 16.4 µM (inactive) | 57 µM (inactive) | 53.2 µM (inactive) | > 100 µM (inactive) | 47.5 µM (inactive) | – | 40.9 µM (inactive) | > 100 µM (inactive) | > 100 µM (inactive) | > 100 µM (inactive) | 31.5 µM (inactive) | 27.4 µM (inactive) | 40.6 µM (inactive) | 39.1 µM (inactive) | – | 18.7 µM (inactive) | 20.6 µM (inactive) | 20.1 µM (inactive) | 25.6 µM (inactive) |
